We go through nine compounds from PubChem BioAssay (NCI).

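Growth conditions: 96-well plates. Treatment: test compound, 48 hours, 5 concentrations. Analysis: linear interpolation between bracketing concentrations; unreached endpoints set to highest concentration. At the TGI there is no net growth.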

Test systems include CCRF-CEM leukemia; COLO 205 colon; HL-60(TB) leukemia; HT29 colon; IGROV1 ovarian; K-562 leukemia; MALME-3M melanoma; MOLT-4 leukemia; NCI-H522 lung; OVCAR-4 ovarian; OVCAR-8 ovarian; SN12C renal; SNB-19 CNS; TK-10 renal; U251 CNS; UO-31 renal.
Holding throughout (assay): DTP human tumour cell line panel, 48 h

Broadly, the TGI is the concentration giving total growth inhibition. On to `Clc1ccc(-c2c(C3=NCCN3)nnn2-c2ccc(Cl)cc2)cc1`, for which the TGI with CCRF-CEM leukemia was 73 µM; in the test on COLO 205 colon it was 25.4 µM; in the test with HL-60(TB) leukemia, 39.1 µM; in the test with HT29 colon it was 36.2 µM; in the test with IGROV1 ovarian, above 100 µM; in the test with K-562 leukemia, 35.9 µM. For the same compound, the TGI in the test on MALME-3M melanoma is 33.9 µM; with MOLT-4 leukemia, 29 µM; in the test with NCI-H522 lung, 30.1 µM; with OVCAR-4 ovarian, above 100 µM; in the test on OVCAR-8 ovarian it was above 100 µM; in the test with SN12C renal, above 100 µM. For the same compound, the TGI was above 100 µM with SNB-19 CNS, 69.7 µM with TK-10 renal, 45.2 µM in the test on U251 CNS and 64.5 µM with UO-31 renal.
`CCN1CCN(c2ccc(Nc3ccnc4ccc5nn(C)nc5c34)cc2)CC1`: the TGI in the test with CCRF-CEM leukemia is above 100 µM; with COLO 205 colon, 18.4 µM; with HL-60(TB) leukemia it was above 100 µM; with HT29 colon it was 16.6 µM; with IGROV1 ovarian, 39.5 µM; with K-562 leukemia it was above 100 µM. Moreover, the TGI was 30.8 µM with MALME-3M melanoma; above 100 µM with MOLT-4 leukemia; 23.6 µM with NCI-H522 lung; 26.1 µM with OVCAR-4 ovarian; 25.3 µM in the test with OVCAR-8 ovarian; 42.3 µM in the test with SN12C renal. Moreover, the TGI with SNB-19 CNS amounted to 43.9 µM; with TK-10 renal, 39.4 µM; in the test on U251 CNS it was 27 µM; in the test with UO-31 renal, 26.7 µM.
Turning to `CCCCCC(C[N+]1(C)CCOCC1)C(=O)/C=C/c1ccccc1` (stereo unspecified), the TGI is above 35.3 µM in the test on CCRF-CEM leukemia; 35.9 µM in the test on COLO 205 colon; 37.5 µM in the test with HL-60(TB) leukemia; 10.3 µM with HT29 colon; 40.1 µM in the test with IGROV1 ovarian; 18 µM in the test on K-562 leukemia. Besides, the TGI in the test on MALME-3M melanoma was determined as 32 µM; in the test on MOLT-4 leukemia, 27.4 µM; in the test with NCI-H522 lung, 9.39 µM; in the test on OVCAR-4 ovarian, 15.9 µM; with OVCAR-8 ovarian, 39.3 µM; in the test on SN12C renal it was 28.6 µM. The TGI in the test on SNB-19 CNS amounted to 24.5 µM; in the test with TK-10 renal it was 37.8 µM; in the test with U251 CNS, 21.2 µM; with UO-31 renal, 29.7 µM.
As to `Cc1ccc(C2CC(c3ccco3)=NN2c2ccccc2)o1` (stereo unspecified), the TGI in the test with CCRF-CEM leukemia, in the test with COLO 205 colon, with HL-60(TB) leukemia, with HT29 colon, in the test with IGROV1 ovarian and in the test with K-562 leukemia was above 100 µM throughout. In addition, the TGI in the test with MALME-3M melanoma, in the test with MOLT-4 leukemia, with NCI-H522 lung, in the test on OVCAR-4 ovarian, in the test on OVCAR-8 ovarian and in the test with SN12C renal was above 100 µM throughout. For the same compound, the TGI in the test on SNB-19 CNS, in the test with TK-10 renal, in the test with U251 CNS and with UO-31 renal was above 100 µM in each case.
With `N#C/C(=C\c1ccc(O)c(O)c1)C(N)=O`, the TGI with CCRF-CEM leukemia was 37.7 µM; in the test on COLO 205 colon it was above 100 µM; with HL-60(TB) leukemia, 23.9 µM; in the test on HT29 colon it was above 100 µM; with IGROV1 ovarian, above 100 µM; with K-562 leukemia, above 100 µM. For the same compound, the TGI in the test on MALME-3M melanoma was above 100 µM; in the test with MOLT-4 leukemia, 38.6 µM; in the test with NCI-H522 lung, 53.3 µM; with OVCAR-4 ovarian, above 100 µM; in the test on OVCAR-8 ovarian, above 100 µM; in the test on SN12C renal, above 100 µM. The total growth inhibition concentration (TGI) in the test with SNB-19 CNS, in the test on TK-10 renal, with U251 CNS and in the test with UO-31 renal was above 100 µM throughout.
Consider `O=C(C[n+]1ccccc1)NNC(=O)/C(=C/c1ccc2c(c1)OCO2)NC(=O)c1ccccc1`, for which the TGI was 65 µM in the test on CCRF-CEM leukemia; above 65.5 µM in the test with COLO 205 colon; 64.8 µM in the test with HL-60(TB) leukemia; above 100 µM in the test on HT29 colon; above 100 µM in the test on IGROV1 ovarian; above 100 µM with K-562 leukemia. The TGI in the test with MALME-3M melanoma is above 100 µM; in the test on MOLT-4 leukemia, 82.7 µM; in the test on NCI-H522 lung, above 70.8 µM; in the test with OVCAR-4 ovarian, above 94.5 µM; with OVCAR-8 ovarian, above 85 µM; in the test with SN12C renal, above 100 µM. Moreover, the TGI with SNB-19 CNS is above 100 µM; in the test with TK-10 renal, above 100 µM; in the test on U251 CNS it was above 76.5 µM; with UO-31 renal, above 100 µM.
As for `O=C1C(Cl)C(c2ccccc2)N1n1cnc2ccccc2c1=O` (stereo unspecified), the TGI in the test on CCRF-CEM leukemia, with COLO 205 colon, with HL-60(TB) leukemia, with HT29 colon, in the test on IGROV1 ovarian and in the test with K-562 leukemia was above 100 µM throughout. Besides, the TGI with MALME-3M melanoma, in the test on MOLT-4 leukemia, with NCI-H522 lung, in the test on OVCAR-4 ovarian, with OVCAR-8 ovarian and with SN12C renal was above 100 µM each time. The TGI with SNB-19 CNS, with TK-10 renal, with U251 CNS and in the test with UO-31 renal was above 100 µM throughout.
`Nc1ccc(C(=O)NN2C(=O)C(Cl)C2c2ccccc2Cl)cc1` (stereo unspecified): the TGI came out at 6.67 µM in the test on CCRF-CEM leukemia; 28.1 µM with COLO 205 colon; 23.5 µM with HT29 colon; 26.4 µM in the test on IGROV1 ovarian; 31.4 µM with MALME-3M melanoma; 8.1 µM in the test with MOLT-4 leukemia. The TGI in the test on NCI-H522 lung worked out at 3.13 µM; in the test on OVCAR-4 ovarian it was 27.1 µM; in the test on OVCAR-8 ovarian it was 10.8 µM; with SNB-19 CNS, 30.6 µM; in the test with TK-10 renal, 30.1 µM; with U251 CNS it was 24.7 µM. The TGI with UO-31 renal was determined as 30.8 µM.
In the case of `COC(=O)C(=C/c1ccc(OC)cc1)/C(C(=O)O)=C(/C)c1ccccc1`, the TGI with CCRF-CEM leukemia, in the test on COLO 205 colon, with HL-60(TB) leukemia, in the test with HT29 colon, in the test on IGROV1 ovarian and with K-562 leukemia was above 100 µM each time. The TGI in the test on MALME-3M melanoma, in the test with MOLT-4 leukemia, in the test on NCI-H522 lung, with OVCAR-4 ovarian, with OVCAR-8 ovarian and in the test with SN12C renal was above 100 µM each time. Further, the TGI in the test with SNB-19 CNS, in the test with TK-10 renal, with U251 CNS and in the test on UO-31 renal was above 100 µM in each case.
